Experimental data from patent US20200352950A1, “Novel method of treating dystonia” (KOREA ADVANCED INSTITUTE OF SCIENCE AND TECHNOLOGY, priority 2017, published 2020).
Entries after “also recorded” stand apart in the source; their conditions may differ.

Key:
[1] = tested on: CACNA1Atot/tot mice (tottering mice); experiment: EMG cross correlation between tibialis anterior and gastrocnemius muscles of tottering mice; format: in vivo; conditions: FIG. 1G; stressed environment; compared to control group
Text: Electrodes (A-M system, USA) were surgically inserted into the gastrocnemius (GS) and tibialis anterior (TA) muscle for EMG recording, respectively. The electrodes were made using multiple strands of stainless-steel wires attached to each other and coated with Teflon. After shaving the hair of the right hind leg and behind the neck, a small incision was formed in the skin of the dorsal neck area. Four sets of recording electrodes were connected from the neck incision to the muscles under the skin. The EMG wires were wired under the skin and connected to a connector fixed to the skull. The low impedance of the exposed end of the wires allows the capture of electrical signals that have passed through relatively long distances (Pearson et al., J. Neurosci. Methods, 148 (1): 36-42, 2005). The EMG signals from the electrodes were sampled at 10 kHz and digitized with MiniDigi 1A (Axon Instrument, USA). Raw traces were analyzed using Clampfit 9.2 (Axon Instrument, USA). The cross correlation was calculated by using the standard of NeuroExplorer (Ver. 4, Nex Technologies, USA). […] The cross correlation indicates the degree of EMG overlap for a certain period in two muscles (TA and GS), and is a measure for judging whether the dystonia symptoms occur simultaneously in two muscles. […] That is, the greater the cross correlation value (Cross Corr.), which is the Y-axis value when the signal between each other is 0 ms (when contracted at the same time), the more severe the dystonia symptoms that the two muscles contract at the same time. The unit of the Y axis, AU, is a relative cross correlation value when the control is set to 1 which is an arbitrary unit.

[2] = tested on: CACNA1Atot/tot mice (tottering mice); experiment: Stress-induced dystonia in tottering mice in open field box (attack event number, dystonia score); format: in vivo; conditions: FIG. 1F; i.p. 30 min before test; Way100135 10 mg/kg, MDL100907 1 mg/kg, ondansetron 1 mg/kg; open field box 30 min
Description: The 7-8 weeks old CACNA1Atot/tot mice (Fletcher, Cell, 87 (4): 607-617, 1996, The Jackson Laboratory, Stock No: 000544) were selected kept and dealt complied with the regulation (protocol number KA2015-05) of Institutional Animal Care and Use Committee of the Korea Advanced Institute of Science and Technology (KAIST). The mice remained freely accessible to water and feed, and the light-dark cycle was 12/12 hours. Behavioral tests were performed 4 weeks after the viral transduction. […]
The drugs were dissolved in physiological saline and administrated […] to the tottering animal prepared by the Examples 2 and kept in the controlled environment of 12/12 hour light-dark cycle. […] The behavior test was performed 30 minutes after drug administration, and the experimental animals were acclimated in the home for 30 minutes and moved to an open field box, they were exposed to a stressed environment by leaving them in the open field box for 30 min, and the symptoms of dystonia were measured. The symptoms of dystonia and its severity were calculated using a 5-point scale dystonia score as follows: 0=normal behavior, 1=abnormal motor behavior, no myotonic posture, 2=minor dyskinesia, showing dystonia-like psture when disturbed, 3=moderate motor disability, frequent spontaneous myotonic posture, 4=severe motor disability, and persistent myotonic posture.

[3] = tested on: CACNA1Atot/tot mice (tottering mice); experiment: as above; format: in vivo; conditions: for dystonia symptoms, dose-dependent effect: FIG. 3A; for degree of relaxation of dystonia (number of dystonia events, dystonia score): FIGS. 3B, 3C, i.p., MDL100907 1 or 2 mg/kg, pimavanserin 1.5 mg/kg, ritanserin 2 mg/kg, glemanserin 2 mg/kg, nelotanserin 1 mg/kg, compared to the control group
[4] = tested on: calcium ion concentration in the cerebellum; experiment: Real-time GCaMP6 fluorescence measurement of calcium ion concentration in the cerebellum of tottering mice; format: in vivo; conditions: FIG. 4E; stress environment
Description: In order to analyze the correlation between the degree of dystonia symptoms and the concentration of calcium ions in neurons, optogenetic model animals were prepared. Particularly, for a photometric system with a polarization-maintaining single-mode optical fiber, AAV2/9-CAG-FLEX-GCaMP6m (zadmehr et al., Cell, 164: 617-631, 2016) and AAV2/9-CMV-Cre (Gompf et al., Front. Behav. Neurosci. 9: 152, 2015) viral vectors were injected unilaterally into 0.25 μl each of the fastigial nucleus of the CACNA1A^tot/tot mouse through stereotaxic surgery. The virus injection was carried out 4 weeks before the experiment. […] For the fluorescence measurement, a TCSPC-based light measurement system (Becker & Hickel, Germany) was used.
The change in calcium signaling in the cerebellum is possible by transduction of a gene encoding the calcium sensor protein GCaMP6 into the cerebellum of the dystonia model mouse, and then measuring the intensity of fluorescence of the GCaMP6 protein bound to calcium ions. […] The present inventors performed real-time fluorescence analysis to analyze the correlation between dystonia symptoms and calcium ion concentration in nerve tissues in the topical transduction tottering mice prepared in Example 2. […] After the pulse laser irradiation, 509 nm wavelength fluorescence was measured using a TCSPC-based optical measurement system (Becker & Hickl, Germany). […]

5-HT2A receptor = 5-HT2A receptor (Homo sapiens, UniProt P28223); conditions: cited from earlier work
Sequence of 5-HT2A receptor (P28223 whole entry): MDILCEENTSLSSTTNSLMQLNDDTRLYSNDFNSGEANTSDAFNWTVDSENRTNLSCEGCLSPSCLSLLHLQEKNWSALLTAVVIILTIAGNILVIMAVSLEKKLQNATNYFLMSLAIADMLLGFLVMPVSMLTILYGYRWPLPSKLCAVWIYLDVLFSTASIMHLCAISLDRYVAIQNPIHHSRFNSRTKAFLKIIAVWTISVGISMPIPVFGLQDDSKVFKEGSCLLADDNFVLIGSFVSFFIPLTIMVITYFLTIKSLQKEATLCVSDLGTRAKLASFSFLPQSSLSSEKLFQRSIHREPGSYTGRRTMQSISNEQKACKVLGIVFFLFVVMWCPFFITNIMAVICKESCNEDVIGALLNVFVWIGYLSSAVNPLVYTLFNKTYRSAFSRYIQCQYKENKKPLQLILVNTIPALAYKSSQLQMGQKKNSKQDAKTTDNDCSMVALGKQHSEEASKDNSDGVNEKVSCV

## COc1ccccc1N1CCN(CC(C(=O)NC(C)(C)C)c2ccccc2)CC1 (stereo not shown) [Way100135]
[1]
  EMG cross correlation (TA and GS muscles): there is no difference
[2]
  symptoms of dystonia (attack event number and muscle dysfunction index): did not reduce symptoms of dystonia at all

## COc1cccc([C@H](O)C2CCN(CCc3ccc(F)cc3)CC2)c1OC [Volinanserin]
[3]; 0.1 mg/kg
  dystonia symptoms, dose-dependent effect: dystonia symptoms were significantly suppressed
[3]; 2 mg/kg rather than 1 mg/kg
  dystonia symptoms, dose-dependent effect: symptoms were slightly alleviated
[3]
  degree of relaxation of dystonia (number of dystonia events, dystonia score): showed no dystonia paralysis; also recorded: reduced symptoms of dystonia compared to Glemanserin
[1]
  EMG cross correlation (TA and GS muscles): the correlation disappeared
[4]
  increase in GCaMP6 fluorescence signal (ΔF/F) in cerebellum after moving to open field box: reduced to the level when staying at the home

## OC(c1ccccc1)C1CCN(CCc2ccccc2)CC1 (stereo not shown) [Glemanserin]
[3]
  degree of relaxation of dystonia (number of dystonia events, dystonia score): showed no significant effect
5-HT2A receptor
  IC50: 6.5 ± 2 nM

## CC(CCN1CCN(c2ccc(F)cc2)CC1)NC(=O)c1cccnc1 (stereo not shown) [Niaprazine]
5-HT2A receptor; 5-HT2A receptor
  Ki: 75 nM
  pKi: 7.61 ± 0.18

## CC(C)COc1ccc(CNC(=O)N(Cc2ccc(F)cc2)C2CCN(C)CC2)cc1 [Pimavanserin]
[3]
  degree of relaxation of dystonia (number of dystonia events, dystonia score): showed no dystonia paralysis; also recorded: reduced symptoms of dystonia compared to Glemanserin

## Cc1nc2sccn2c(=O)c1CCN1CCC(=C(c2ccc(F)cc2)c2ccc(F)cc2)CC1 [Ritanserin]
[3]
  degree of relaxation of dystonia (number of dystonia events, dystonia score): showed no dystonia paralysis

## COc1ccc(NC(=O)Nc2ccc(F)cc2F)cc1-c1c(Br)cnn1C [Nelotanserin]
[3]
  degree of relaxation of dystonia (number of dystonia events, dystonia score): showed no dystonia paralysis
5-HT2A receptor; 5-HT2A receptor
  Ki: 0.4 ± 0.07 nM

## Cc1nccn1CC1CCc2c(c3ccccc3n2C)C1=O (stereo not shown) [ondansetron]
[1]
  EMG cross correlation (TA and GS muscles): there is no difference
[2]
  symptoms of dystonia (attack event number and muscle dysfunction index): did not reduce symptoms of dystonia at all

## OCCOCCN1CCN(C(c2ccccc2)c2ccc(Cl)cc2)CC1 (stereo not shown) [Hydroxyzine]
5-HT2A receptor
  IC50: 170 nM

## COc1ccc(CC(=O)N(Cc2ccc(C)cc2)C2CCN(C)CC2)cc1 [AC-90179]
5-HT2A receptor; 5-HT2A receptor
  Ki: 2.1 ± 0.2 nM
